In one assay the target is T1, plasminogen (Pg) (Homo sapiens, UniProt P00747).
T1 construct: Glu-Pg, uPA, tPA, fibrinogen, and chromogenic substrate for Pn were purchased from Molecular Innovations (Novi, Mich.); purchased Molecular Innovations (Novi, Mich.)
In words: Chromogenic activity assay: activation of unmodified and MG-modified Pg to plasmin by tPA, uPA or STK on a fibrin matrix. The class given is biochemical. The settings on record: p<0.05. How it is done: (§1) 10 μg Pg was incubated with MG (50-500 μM) in tris-buffered saline (TBS) for 24 hours at 37° C. Following modification, sample volumes were increased to 150 μL and placed in 5 kDa spin filters to reduce volume and remove excess MG from solution.
96-well plate was incubated with 200 μL of 260 nM fibrinogen in TBS for 40 min at room temperature. Fibrinogen solution was removed and replaced with 250 μL TBS containing 3% bovine serum albumin and 0.01% TWEEN for 90 minutes at 37° C. Blocking solution was removed and the plate was washed twice with solution of 50 mM Tris-HCl, 110 mM NaCl and 0.01% TWEEN (pH 7.4). 5 units/mL of thrombin and 5 mM CaCl2 in 50 mM Tris-HCl, 110 mM NaCl (pH 7.4) was added to the wells for 45 min. A high salt wash (1 M NaCl, 50 mM Tris-HCl, pH 7.4) followed by a TBS-TWEEN wash completed plate prep.
Into each well 198 μL of 10 mM HEPES/150 mM NaCl (pH 7.4) was added. Into each well, 2 μL of 25 mM chromogenic substrate for Pn (D-VLK-pNA) was added. To appropriate wells were added 2 μL of 20 μM Pg, either a 24-hour unmodified control or 24 hour 50-500 μM MG modified. Activators were added to respective wells to test activation of unmodified and modified Pg. 2 μL of each activator enzyme was utilized in appropriate wells for tPA (1.2 μM), uPA (5 μM) and STK (500 nM). Following enzyme addition, plate was immediately read on a SpectraMax M2 plate reader (Molecular Devices) every minute for 90 minutes at an absorbance of 405 nm.
Pg (10 μg) was incubated with MG (50-500 μM) in 10 mM HEPES/150 mM NaCl (pH 7.4) for 24 hours at 37° C. Following modification, sample volumes were increased to 150 μL and placed in 5 kDa spin filters to reduce volume and remove excess MG from solution. A 96-well plate was incubated with 200 μL of 260 nM fibrinogen in TBS for 40 min. at room temperature. Fibrinogen solution was removed and replaced with 250 μL TBS containing 3% bovine serum albumin and 0.01% TWEEN for 90 minutes at 37° C. Blocking solution was removed and the plate was washed twice with solution of 50 mM Tris-HCl, 110 mM NaCl and 0.01% TWEEN (pH 7.4). Thrombin (5 units/mL) and 5 mM CaCl2 in 50 mM Tris-HCl, 110 mM NaCl (pH 7.4) was added to the wells for 45 min. A high salt wash (1M NaCl, 50 mM Tris-HCl, pH 7.4) followed by a TBS-TWEEN wash completed plate prep. Into each well, 198 μL of 10 mM HEPES/150 mM NaCl (pH 7.4) and 2 μL of 25 mM chromogenic substrate for Pn (D-VLK-pNA) were added. To appropriate wells were added 2 μL of 20 μM Pg, either a 24-hour unmodified control or 24 hour 50-500 μM MG modified. Activators were added to respective wells to test activation of unmodified and modified Pg. Each activator enzyme (2 μL) was utilized in appropriate wells for tPA (12 nM), uPA (50 nM) and STK (5 nM) (Ajjan et al., 2013, Zhang et al., 2012). Following enzyme addition, plate was immediately read on a SpectraMax M2 plate reader (Molecular Devices) every minute for 90 minutes at an absorbance of 405 nm.

The next assay has as its target T2, Pg (Homo sapiens, UniProt P00747).
T2 construct: Glu-Pg, uPA, tPA, fibrinogen, and chromogenic substrate for Pn were purchased from Molecular Innovations (Novi, Mich.); purchased Molecular Innovations (Novi, Mich.)
The experiment in a line: Two-dimensional gel electrophoresis of MG-modified Pg (isoelectric point shift). It is filed as physicochemical. As to conditions: 24-hr 500 μM MG; 4-7 pH isoelectric focusing strip. As to the method:
as §1
MG-modified (500 μM) and unmodified Pg control (same incubation conditions without MG) were added to 250 μL amount of rehydration buffer (6M urea, 2M thiourea, 2% CHAPS, 100 mM DTT, 0.5% 3-10 ampholytes) and 5 μL of 3-10 ampholytes (Bio-Rad). Sample rehydrated with a 13 cm 4-7 pH isoelectric focusing strip (GE Healthcare) overnight. Following rehydration, strips were placed in a Bio-Rad PROTEAN IEF Cell focusing instrument. Strips were first focused for 1 hour at 500 V, and then run at a maximum of 8,000V until the strips have reached a final total of 45,000 V/hrs at which point gels are held at 500V until removed. Focused strips were removed, reduced with DTT, cysteines carbamidomethylated with iodoacetamide, and run on a 4-20% gradient Criterion gel for 55 minutes at 200V. Gels were stained for stained according to manufacturer instructions with Imperial Blue Protein (ThermoScientific, Rockford, Ill.) and destained immediately with water. Gel bands were excised and trypsin digested.

SMILES strings stand for the structures.

T1 sequence (P00747 20-810 limits assumed): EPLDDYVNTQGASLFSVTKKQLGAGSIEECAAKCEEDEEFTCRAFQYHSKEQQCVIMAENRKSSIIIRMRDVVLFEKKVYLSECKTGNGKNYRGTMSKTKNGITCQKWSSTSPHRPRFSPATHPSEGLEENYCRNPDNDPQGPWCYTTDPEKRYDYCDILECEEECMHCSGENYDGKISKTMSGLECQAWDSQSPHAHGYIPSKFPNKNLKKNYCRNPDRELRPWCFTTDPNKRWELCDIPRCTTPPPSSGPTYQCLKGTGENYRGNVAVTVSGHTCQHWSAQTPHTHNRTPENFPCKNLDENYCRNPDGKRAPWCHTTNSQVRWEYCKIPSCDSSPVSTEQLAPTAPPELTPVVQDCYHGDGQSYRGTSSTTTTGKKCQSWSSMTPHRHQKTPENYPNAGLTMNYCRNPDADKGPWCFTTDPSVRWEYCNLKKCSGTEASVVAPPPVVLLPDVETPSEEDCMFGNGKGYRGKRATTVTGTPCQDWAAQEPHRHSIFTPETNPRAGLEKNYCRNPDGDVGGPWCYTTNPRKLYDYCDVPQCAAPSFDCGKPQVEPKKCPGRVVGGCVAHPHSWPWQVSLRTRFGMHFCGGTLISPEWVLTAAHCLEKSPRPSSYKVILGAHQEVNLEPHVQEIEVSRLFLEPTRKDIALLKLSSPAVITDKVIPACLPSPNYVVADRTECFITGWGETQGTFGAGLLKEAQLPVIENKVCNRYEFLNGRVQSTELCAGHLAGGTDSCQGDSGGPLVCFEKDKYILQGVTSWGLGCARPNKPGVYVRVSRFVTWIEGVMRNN
T2 sequence (P00747 20-810 limits assumed): as above

Regarding `CC(=O)C=O` [MG, Methylglyoxal], the “time at which significant delay in activation of MG-modified Pg is detectable” value at plasminogen (Pg) (STK 5 nM, Pg modified 24 hours with 100 μM MG) turned out to be 16 min; at plasminogen (Pg) (STK 5 nM, Pg modified 24 hours with 500 μM MG) it was 12 min; on plasminogen (Pg) (tPA 12 nM, Pg modified 24 hours with 100 μM MG), 30 min; at plasminogen (Pg) (tPA 12 nM, Pg modified 24 hours with 500 μM MG), 28 min; on plasminogen (Pg) (uPA 50 nM, Pg modified 24 hours with 500 μM MG), 37 min. Moreover, the “pI of MG-modified Pg” value on Pg was 5.8-6.7.

These data come from patent publication US20190137505A1 (THE ARIZONA BOARD OF REGENTS ON BEHALF OF THE UNIVERSITY OF …, priority 2015, published 2019).
